Measured values: patent publication US6087336A, “Peptide derivatives useful in treating autoimmune diseases” (Zeneca Limited, priority 1996, dated 2000)

Tests used:
HLA-DR4Dw4 = target: T1, HLA-DR4Dw4 (Homo sapiens, UniProt P01903+P01911, A100K/A169T/F76Y/I96L/K127E/L162R/M171V/N62H/P40V/Q125Y/R42H/S133A/S149N/S66Y/V115G/V209L/W38E); assay: Test A: purified HLA-DR peptide in vitro binding assay; conditions: compared with the other isolated diastereomer
T1 construct: a cDNA encoding the β chain is cloned into the transfer vector pAcUW1; made in house; host or cells: Sf21 insect cells, double-recombinant baculovirus
Procedure: Test A: Purified HLA-DR peptide in vitro binding assay. […]. At the end of the incubation period 100 μl of the incubate is transferred to Enzyme Linked lmmunoSorbant Assay (ELISA) plates (Nunc) previously coated with an anti-MHC antibody (L243--American Type Culture Collection (ATCC) HB55 --as described in Lampson and Levy (1980) J. Immunol. 125, 293-299) at a concentration of 10 μg/ml for 1 hour at room temperature and blocked thereafter for 1 hour with 1% bovine serum albumin (BSA) in PBS and 0.05% Tween 20. After a further 1 hour period the unbound peptide is washed away and a 1/4,000 dilution of streptavidin peroxidase (Sigma) in PBS with 0.01% of a suitable detergent such as NP40 (Sigma) added for 2 hours at room temperature. After further washing, tetramethylbenzidene (TMB) substrate solution (1 TMB tablet (Sigma) in 10 mIs of 0.1 M citrate/acetate buffer, pH 6.0 with 36 μl urea hydrogen peroxide (UHPO) (Fluka)) is added to each of the plates. The reaction is stopped by adding 2M sulphuric acid (10 μl per well) and the absorbance read at 450 nm to quantify the amount of peptide bound. The inhibitory activity of peptides is obtained by plotting absorbance against concentration.
The purified HLA-DR4Dw4 may be obtained as follows:
(i) Expression of HLA-DR in the Baculovirus System
The expression of recombinant proteins in insect cells from baculovirus vectors is an established procedure to obtain high yields of recombinant protein [Luckow, V A & Summers, M D, 1988, Biotechnology, 6, 47-551]. To enable the expression of the heterodimeric HLA-DR, eg. HLA-DR4Dw4, from a single recombinant baculovirus vector (as opposed to having separate recombinant viruses for the α and β chains and then doing a co-infection), a double-recombinant baculovirus is constructed which carries both the α and β chains.
A cDNA encoding the sequence of the α polypeptide is cloned into the transfer vector pacYM1 [Matsuura, Y; Possee, R D; Overton, H A & Bishop, D H L, 1987, J. Gen. […] The molecular genetic techniques used to construct the recombinant vectors are likewise readily available in the literature and are most fully described by Sambrook, J; Fritsch, E F & Maniatis T, (1989) [Molecular Cloning. […]
To create the double-recombinant baculovirus, a cDNA encoding the β chain is cloned into the transfer vector pAcUW1 [Weyer, U; Knight, S & Possee, R D, 1990, J. Gen. […] Double-recombinant viruses are detected by spotting insect cells, infected with randomly picked viruses from the transfection, onto membranes and reacting them with a monoclonal antibody, e.g. L243, which specifically recognises the HLA-DR heterodimer. Binding of the antibody to Sf21 insect cells is detected using standard flow cytometry techniques, readily available in the literature. […]

[1] = test system: B52.24 murine T cell hybridoma line; assay: Test B: inhibition of T cell activation in vitro; assay type: cell-based; conditions: compared with the other isolated diastereomer
Description: Test B: Inhibition of T cell activation in vitro.
. B52.24 was produced by the fusion of lymph node T cells taken from FHA307-320 immunised HLA-DR4Dw4 transgenic mice (International Patent Application, Publication No WO95/03331) with the BW5147 murine T cell lymphoma line (White et al (1989) J. Immunol. 143, 1822) as outlined in Woods et al (1994) J. Exp. Med. 180, 173-181 and following the general methods for the generation of T cell hybridomas given in Current Protocols in Immunology, Volume 2, 7.21.
Inhibitor peptides at concentrations between 100 and 0.1 μM (or lower) were mixed with the antigenic peptide FHA307-320 in either varying concentrations between 100 and 0.1 μM or at a fixed concentration of 10 μM by dilution in RPM1-1640 culture media (Gibco) in a 96-well mictrotitre plate (Nunc) in a final volume of 100 μl. […]
The culture plates containing supernatants to be assayed were left at room temperature to thaw and […] of supernatant was transferred to fresh 96 round bottomed well plates. […] The contents of each plate were harvested onto glass fibre filter mats and the radioactivity measured using a betaplate scintillation counter.

Substance: Phv-Ala-Ala-Ala-Lys-Val-III-Ala-Pip-NH2 [more polar diastereomer]
- relative potency of diastereomers in Test A (HLA-DR4Dw4): more potent than the less polar diastereomer
- relative potency of diastereomers in Test B [1]: more potent than the less polar diastereomer
